Reference: US20200367543A1, “SWEETENER AND FLAVOR COMPOSITIONS, METHODS OF MAKING AND METHODS OF USE THEREOF” (EPC Natural Products Co., Ltd., priority 2018, published 2020)
Like-named read-outs stand apart in the source and are kept apart here. One block for each molecule: values may come before it.

Experiments:
[1] = Sensory evaluation of GSGs and SGs, thaumatin, NHDC and combinations (Ex. 255); settings: combinations of EPCalin and NHDC dissolved in water
Method: 4.5 ppm Thaumatin (equivalent to 10 ppm EPCalin) was dissolved in water. Increasing amounts of NHDC (1-5 ppm) were added to the solution and the sensory properties were evaluated.
50 ppm (GSGs and SGs) were dissolved in water. Increasing amounts of NHDC (1-5 ppm) were added to the solution and the sensory properties were evaluated.
50 ppm (GSGs and SGs) and 4.5 ppm Thaumatin (equivalent to 10 ppm EPCalin) were dissolved in water. Increasing amounts of NHDC (1-5 ppm) were added to the solution and the sensory properties were evaluated.

[2] = compared to sucrose; cited from earlier work
[3] = cited from earlier work; for times sweeter than sucrose: sweetness depends on the tested concentration compared with sucrose; for natural sweetness, times of that of sugar: constituents of monk fruit juice or extract; for Sweetness by weight: compared to sucrose
[4] = Kinetics of reaction in dependence of pH-conditions (degradation of Phe and Reb-A, Gluc, Xyl, Suc) by HPLC/MS
Method: Quantitative evaluation was performed using external standardization.
Kinetics of Reaction in Dependence of pH-Conditions

[5] = Assay to test reducing power, active iron-III reduction (Ex. 64); settings: 10 mM, 100° C., 0-5.0 h, diluted 1:10
[6] = DPPH radical-scavenging activity (Ex. 65); settings: 10 mM, 100° C., 0-5.0 h, diluted 1:10
Method: 1 mg 1,1-Diphenyl-2-picrylhydrazyl radical (DPPH)/ml ethanol, dilution to assay concentration were prepared in ethanol (40 μg/mL); Calibration samples were prepared with Ascorbic acid in a concentration of 0-10 μg/mL; as a negative control sample, water was used.
Samples in aqueous solution were used as such or diluted with water.
A 0.1 ml sample (or calibration standard) was mixed with 3.9 ml solution of DPPH
([…]) and reacted while protected from light at room temperature for 30 min. Absorbance was determined at 517 nm against ethanol.
10 mM of amino acid and/or 10 mM sugar were dissolved in 10 ml 0.1 mM KH2PO4-buffer, pH=7.8.
The samples were kept at 100° C. in sealed glass vials (Pyrex 15 ml with screw caps) for 0 (before reaction), 2.5 or 5.0 hours. Thereafter the samples were transferred to an ice water bath and cooled down to room temperature. These samples were diluted 1:10 and used for the test assay for anti-oxidant potential.

Molecule: COc1ccc(CCC(=O)c2c(O)cc(O[C@@H]3O[C@H](CO)[C@@H](O)[C@H](O)[C@H]3O[C@@H]3O[C@@H](C)[C@H](O)[C@@H](O)[C@H]3O)cc2O)cc1O [10 ppm NHDC]
Sensory evaluation [1]: Sweet, steep onset of sweetness, no lingering

Molecule: OC[C@@H](O)[C@@H](O)CO [Erythritol]
Energy density [2]: 0.05

Molecule: OCC(O)CO [Glycerol]
Energy density [2]: 1.075

Molecule: CC1(C)[C@@H](O[C@H]2O[C@H](C(=O)O)[C@@H](O)[C@H](O)[C@H]2O[C@@H]2O[C@H](C(=O)O)[C@@H](O)[C@H](O)[C@H]2O)CC[C@]2(C)[C@H]3C(=O)C=C4[C@@H]5C[C@@](C)(C(=O)O)CC[C@]5(C)CC[C@@]4(C)[C@]3(C)CC[C@@H]12 [Glycyrrhizin]
times sweeter than sucrose [3]: 30 to 50 times

Molecule: OC[C@@H](O)[C@@H](O[C@@H]1O[C@H](CO)[C@H](O)[C@H](O)[C@H]1O)[C@H](O)[C@@H](O)CO [Lactitol]
Energy density [2]: 0.5

Molecule: O=C(O)[C@H](Cc1ccccc1)NCC(=O)[C@@H](O)[C@H](O)[C@H](O)CO [MRI (Phe-Glu)]
% formation from degraded Phe ([4]; reaction of Phe and Suc, pH = 5.5, n.d. = not detected): <0.10%
% formation from degraded Phe ([4]; reaction of Phe and Suc, pH = 7.0, n.d. = not detected): 0.54%
% formation from degraded Phe ([4]; reaction of Phe and Suc, pH = 8.5, n.d. = not detected): 0.84%

Molecule: C=C1CC23CC[C@H]4[C@@](C)(CCC[C@@]4(C)C(=O)OC4O[C@H](C(=O)N[C@H](Cc5ccccc5)C(=O)O)[C@@H](O)[C@H](O)[C@H]4O)[C@@H]2CC(O[C@@H]2O[C@H](CO)[C@@H](O)C(O[C@@H]4O[C@H](CO)[C@@H](O)[C@H](O)[C@H]4O)[C@H]2O[C@@H]2O[C@H](CO)[C@@H](O)[C@H](O)[C@H]2O)C1C3 (stereo partly drawn) [MRI (Phe-Reb-A)]
% formation from degraded Phe ([4]; reaction of Phe and Reb-A, pH = 5.5, MRI (Phe-Reb-A): all possible isomers included): 10.4%
% formation from degraded Phe ([4]; reaction of Phe and Reb-A, pH = 7.0, MRI (Phe-Reb-A): all possible isomers included): 11.3%
% formation from degraded Phe ([4]; reaction of Phe and Reb-A, pH = 8.5, MRI (Phe-Reb-A): all possible isomers included): 14.7%

Molecule: OC[C@@H](O)[C@@H](O[C@H]1O[C@H](CO)[C@@H](O)[C@H](O)[C@H]1O)[C@H](O)[C@@H](O)CO [Maltitol]
Energy density [2]: 0.525

Molecule: OC[C@@H](O)[C@@H](O)[C@H](O)[C@H](O)CO [Mannitol]
natural sweetness, times of that of sugar [3]: 0.55-0.65 times
Energy density [2]: 0.4

Molecule: COc1ccc(CCC(=O)c2c(O)cc(O[C@@H]3O[C@H](CO)[C@@H](O)[C@H](O)[C@H]3O[C@@H]3O[C@@H](C)[C@H](O)[C@@H](O)[C@H]3O)cc2O)cc1O [NHDC, Neohesperidin dihydrochalcone]
times sweeter than sugar ([3]; at threshold concentrations): 1500-1800 times
times sweeter than sugar ([3]; weight-for-weight): about 340 times

Molecule: C=C1C[C@@]23CC[C@H]4[C@@](C)(CCC[C@@]4(C)C(=O)O[C@@H]4O[C@H](CO)[C@@H](O)[C@H](O)[C@H]4O)[C@@H]2CC[C@]1(O[C@@H]1O[C@H](CO)[C@@H](O)[C@H](O[C@@H]2O[C@H](CO)[C@@H](O)[C@H](O)[C@H]2O)[C@H]1O[C@@H]1O[C@H](CO)[C@@H](O)[C@H](O)[C@H]1O)C3 [Reb-A, Rebaudioside A]
anti-oxidant properties (active iron-III reduction) [5]: substantial anti-oxidant properties
anti-oxidant properties (radical scavenging) [6]: substantial anti-oxidant properties

Molecule: OC[C@@H](O)[C@@H](O)[C@H](O)[C@@H](O)CO [Sorbitol]
Energy density [2]: 0.65

Molecule: O=C(CO)[C@@H](O)[C@@H](O)[C@H](O)CO [Tagatose]
Energy density [2]: 0.38

Molecule: C[C@H](CC[C@@H](O[C@@H]1O[C@H](CO)[C@@H](O)[C@H](O)[C@H]1O[C@@H]1O[C@H](CO)[C@@H](O)[C@H](O)[C@H]1O)C(C)(C)O)[C@H]1CC[C@@]2(C)[C@H]3CC=C4[C@@H](CC[C@H](O[C@@H]5O[C@H](CO[C@@H]6O[C@H](CO)[C@@H](O)[C@H](O)[C@H]6O)[C@@H](O)[C@H](O)[C@H]5O)C4(C)C)[C@]3(C)[C@H](O)C[C@]12C [mogroside IV]
natural sweetness, times of that of sugar [3]: 126 times

Molecule: C[C@H](CC[C@@H](O[C@@H]1O[C@H](CO[C@@H]2O[C@H](CO)[C@@H](O)[C@H](O)[C@H]2O)[C@@H](O)[C@H](O)[C@H]1O[C@@H]1O[C@H](CO)[C@@H](O)[C@H](O)[C@H]1O)C(C)(C)O)[C@H]1CC[C@@]2(C)[C@@H]3CC=C4[C@@H](CC[C@H](O[C@@H]5O[C@H](CO[C@@H]6O[C@H](CO)[C@@H](O)[C@H](O)[C@H]6O)[C@@H](O)[C@H](O)[C@H]5O)C4(C)C)[C@]3(C)[C@H](O)C[C@]12C [mogroside V]
natural sweetness, times of that of sugar [3]: 256-344 times

Molecule: O=S(=O)([O-])NC1CCCCC1.[Na+] [sodium cyclamate]
times sweeter than sucrose [3]: about 30 times

Molecule: OC[C@H]1O[C@H](O[C@]2(CCl)O[C@H](CCl)[C@@H](O)[C@@H]2O)[C@H](O)[C@@H](O)[C@H]1Cl [sucralose]
times sweeter than sucrose [3]: about 600 times

Molecule: Fructo-oligosaccharide
Sweetness by weight [3]: 0.3-0.5

Molecule: Isomalt
Energy density [2]: 0.5

Molecule: Isomalto-oligosaccharide
Sweetness by weight [3]: 0.5

% formation from degraded Reb-A ([4]; reaction of Phe and Reb-A, pH = 5.5): 23.1%
% formation from degraded Reb-A ([4]; reaction of Phe and Reb-A, pH = 7.0): 22.7%
% formation from degraded Reb-A ([4]; reaction of Phe and Reb-A, pH = 8.5): 19.1%
Molecule: rebaudioside B [Reb B]
